One compound from US9833454B2, “Difluoromethoxy compound with low bioactivation potential for the reduction of beta-amyloid production” (BRISTOL-MYERS SQUIBB COMPANY, priority 2014, dated 2017) can be followed below.

Data set [1] relates to Aβ42. Nature of the data set: Determination of Aβ42 IC50. Type of data set: cell-based. As for the experimental part:
Aβ42 IC50 was determined as described by Gillman, J. E. Starrett Jr., M. F. Parker, et al., “Discovery and evaluation of BMS-708163, a potent, and orally bioavailable gamma-secretase inhibitor”, ACS Medicinal Chemistry Letters, vol. 1., pp. 120-124, 2010. Mouse brain Aβ42 was determined as described by J. H. Toyn, X-A. Lin, M. W. Thompson et al., “Viable mouse gene ablations that robustly alter bran Abeta levels are are”, Biomed. Central Neuroscience, vol. 11, pp. 143, […].

The target of data set [2] is T1, CYP2C8 (Homo sapiens, UniProt P10632).
T1 sequence (P10632 1-490): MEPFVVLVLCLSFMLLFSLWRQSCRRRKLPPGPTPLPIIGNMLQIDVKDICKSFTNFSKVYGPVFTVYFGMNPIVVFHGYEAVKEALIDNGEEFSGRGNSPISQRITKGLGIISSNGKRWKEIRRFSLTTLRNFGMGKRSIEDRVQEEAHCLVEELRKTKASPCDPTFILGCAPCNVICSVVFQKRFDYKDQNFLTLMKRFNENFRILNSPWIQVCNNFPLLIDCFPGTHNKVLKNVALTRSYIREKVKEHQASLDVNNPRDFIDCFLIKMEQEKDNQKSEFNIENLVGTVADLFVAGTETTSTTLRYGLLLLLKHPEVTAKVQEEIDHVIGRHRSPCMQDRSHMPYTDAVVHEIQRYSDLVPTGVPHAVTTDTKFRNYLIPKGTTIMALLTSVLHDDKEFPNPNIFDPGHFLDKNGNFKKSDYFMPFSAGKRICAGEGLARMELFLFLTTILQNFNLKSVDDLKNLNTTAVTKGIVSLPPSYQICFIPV
Nature of the data set: Inhibition of recombinant CYP enzymes (rCYP), CYP2C8. It counts as in vitro ADME. As to conditions: average of two experiments, read-out: rCYP IC50 2C8.

Data set [3] has as its target CYP2C9 (Homo sapiens, UniProt P11712). The data set is described as follows: Inhibition of CYP enzymes in human liver microsomes (HLM), CYP2C9. Type of data set: in vitro ADME.
For data set [4], the target named is T2, CYP3A4 (Homo sapiens, UniProt P08684). The data set is described as follows: HLM CYP3A4 Inactivation Assay. Type of data set: in vitro ADME.
Protocol: Human liver microsomes pooled from 150 donors (UltraPool 150), [^13C3]1′-hydroxymidazolam and [^2H7]6β-hydroxytestosterone were purchased from BD Gentest (Woburn, Mass.), midazolam and testosterone from Sigma-Aldrich (Saint Louis, Mo.), NADPH from AKRON Biotech (Boca Raton, Fla.).
After a 2-minute incubation at 37° C., the secondary reactions were terminated by the addition of a quench buffer (1:1, v/v), containing an internal standard (stable-isotope-labeled metabolite of the probe substrate).
Reaction buffer (in both primary and secondary reactions) consisted of 100 mM potassium phosphate, pH 7.4, 2 mM MgCl2, and 1 mM NADPH. Quench buffer was a mixture of water, acetonitrile, and formic acid (94:5:1, v/v/v) containing one of the internal standards (0.2 μM [^13C3]1′-hydroxymidazolam or 3 μM [^2H7]6β-hydroxytestosterone).
Quenched reaction mixtures (in 96-well microplates) were initially frozen at −80° C. and then, before LC-MS/MS analysis, the samples were thawed at room temperature and centrifuged at ˜2500×g for 10 minutes to precipitate denatured microsomal protein. Supernatants were used to quantify the amount of a metabolite of the probe substrate in the reaction samples.
The LC-MS/MS system consisted of a Thermo Cohesive ARIA LX-2 (Waltham, Mass.) with Shimadzu LC-20AD XR pumps (Kyoto, Japan) for gradient elution and an AB Sciex API 4500 triple-quadrupole mass spectrometer (Foster City, Calif.), using Turbo V™ source for sample analysis. Samples were injected using dual-arm CTC HTS PAL autosampler from LEAP Technologies (Carrboro, N.C.
To quantify 1′-hydroxymidazolam, the mass spectrometer was operated under positive ionization mode and SRM used for analysis. […] The dwell time was 75 ms for each transition. The declustering potential was 70 V and the collision energy 38 eV. A Kinetex 2.6 μm XB-C18 100A, 50 mm×2.1 mm HPLC column from Phenomenex (Torrance, Calif.) and the injection volume was 10 μL. Mobile phase A was water with 0.2% formic acid, and mobile phase B was acetonitrile with 0.2% formic acid. […] The total cycle time was 90 seconds per injection.
To quantify 6β-hydroxytestosterone, the mass spectrometer was operated under positive ionization mode and SRM used for analysis. […]
The signal intensity of the metabolite in MS/MS analysis was normalized to the signal of internal standard; thus signal intensity was expressed as signal ratio. […] Percent CYP3A4 enzyme activity remaining after preincubation was calculated as: % Activity(Remaining)=(S/T)*100 Where: S=sample signal, T=solvent control signal,
The kinetic parameters (kinact and KI) were then calculated by fitting the kobs values plotted against inhibitor concentrations ([I]) using the non-linear regression model (Michaelis-Menten equation) in the GRAPH PAD PRISM v.5.0 software (San Diego, Calif.):
Data set [5] has as its target dopamine receptor 1 (Homo sapiens, UniProt P21728). Nature of the data set: In vitro safety: off-target receptor binding and enzyme assays, D1. The conditions noted are these: in vitro safety panel. As for the experimental part: (§1) A range of off-target receptor binding assays and enzyme assays were carried out using conventional methods available in the art.
Data set [6] addresses T3, monoamine oxidase A (Homo sapiens, UniProt P21397).
T3 sequence (P21397 1-527): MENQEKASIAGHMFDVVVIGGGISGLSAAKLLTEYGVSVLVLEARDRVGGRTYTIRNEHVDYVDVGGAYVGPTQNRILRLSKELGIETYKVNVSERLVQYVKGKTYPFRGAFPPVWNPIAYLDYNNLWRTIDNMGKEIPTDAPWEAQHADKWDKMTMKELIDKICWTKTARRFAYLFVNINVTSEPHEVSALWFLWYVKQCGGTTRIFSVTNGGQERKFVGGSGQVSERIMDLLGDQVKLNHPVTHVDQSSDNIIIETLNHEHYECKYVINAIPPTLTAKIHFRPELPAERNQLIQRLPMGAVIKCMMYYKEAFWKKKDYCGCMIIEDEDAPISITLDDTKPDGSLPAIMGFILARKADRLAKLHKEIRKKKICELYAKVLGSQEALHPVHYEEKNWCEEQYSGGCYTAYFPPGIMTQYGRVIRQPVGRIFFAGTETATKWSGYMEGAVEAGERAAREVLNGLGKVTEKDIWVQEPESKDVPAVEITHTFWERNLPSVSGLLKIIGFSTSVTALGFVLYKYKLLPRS
Nature of the data set: In vitro safety: off-target receptor binding and enzyme assays, MAO A. The conditions noted are these: in vitro safety panel. Type of data set: biochemical. As for the experimental part:
as §1

The target in data set [7] is 43 receptor and Enzyme panel (all others). The data set is described as follows: In vitro safety: 43 receptor and enzyme panel, all others. The conditions noted are these: targets other than A2A, DAT, D1, MAO A, read-out: 43 receptor and Enzyme IC50s, all others. As for the experimental part:
as §1

The target in data set [8] is T2, CYP3A4. Nature of the data set: biochemical.
Data set [9] concerns the target T4, CYP1A2 (Homo sapiens, UniProt P05177).
T4 sequence (P05177 1-516): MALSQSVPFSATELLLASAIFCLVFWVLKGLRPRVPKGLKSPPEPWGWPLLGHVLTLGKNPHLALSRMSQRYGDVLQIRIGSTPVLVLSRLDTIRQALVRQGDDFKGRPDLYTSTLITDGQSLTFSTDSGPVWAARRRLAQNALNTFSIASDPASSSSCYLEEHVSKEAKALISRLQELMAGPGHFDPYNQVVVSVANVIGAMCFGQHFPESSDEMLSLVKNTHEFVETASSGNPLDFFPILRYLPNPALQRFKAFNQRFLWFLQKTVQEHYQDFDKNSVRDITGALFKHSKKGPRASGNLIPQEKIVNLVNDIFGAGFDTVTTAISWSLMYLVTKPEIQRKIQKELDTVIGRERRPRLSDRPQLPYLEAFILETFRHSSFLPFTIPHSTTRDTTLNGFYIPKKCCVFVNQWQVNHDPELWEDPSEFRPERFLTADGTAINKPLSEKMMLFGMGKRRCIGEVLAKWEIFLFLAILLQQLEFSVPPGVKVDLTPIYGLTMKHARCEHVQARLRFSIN
The data set is described as follows: Inhibition of recombinant CYP enzymes (rCYP), CYP1A2.

Data set [10] addresses T4, CYP1A2. Nature of the data set: Inhibition of CYP enzymes in human liver microsomes (HLM), CYP1A2.
Data set [11] concerns the target CYP2D6 (Homo sapiens, UniProt P10635). Nature of the data set: Inhibition of CYP enzymes in human liver microsomes (HLM), CYP2D6. As to conditions: IC50 shift 0 vs 30 min preincubation (TDI ratio).
Data set [12] addresses CYP2C19 (Homo sapiens, UniProt P33261). Nature of the data set: Inhibition of CYP enzymes in human liver microsomes (HLM), CYP2C19.
The target of data set [13] is T2, CYP3A4. Nature of the data set: Inhibition of CYP enzymes in human liver microsomes (HLM), CYP3A4 (midazolam and testosterone). As to conditions: IC50 shift 0 vs 30 min preincubation (TDI ratio).
The mark [14] stands for this setting: HLM, IC50 shift 0 vs 30 min preincubation (TDI ratio).
Where [15] appears, read: HLM, all tested concentrations 0.31-20 μM, up to 25 min.

Structures are written as SMILES. Several values for one entry are separate records, joined by “and”; a condition that tells them apart may be missing. Equal values may be shown once. Read-outs that look alike come from different tables or passages of the source. Where only a bound is given, the exact number is not on record here.

Sequence of CYP2C19 (P33261 whole entry): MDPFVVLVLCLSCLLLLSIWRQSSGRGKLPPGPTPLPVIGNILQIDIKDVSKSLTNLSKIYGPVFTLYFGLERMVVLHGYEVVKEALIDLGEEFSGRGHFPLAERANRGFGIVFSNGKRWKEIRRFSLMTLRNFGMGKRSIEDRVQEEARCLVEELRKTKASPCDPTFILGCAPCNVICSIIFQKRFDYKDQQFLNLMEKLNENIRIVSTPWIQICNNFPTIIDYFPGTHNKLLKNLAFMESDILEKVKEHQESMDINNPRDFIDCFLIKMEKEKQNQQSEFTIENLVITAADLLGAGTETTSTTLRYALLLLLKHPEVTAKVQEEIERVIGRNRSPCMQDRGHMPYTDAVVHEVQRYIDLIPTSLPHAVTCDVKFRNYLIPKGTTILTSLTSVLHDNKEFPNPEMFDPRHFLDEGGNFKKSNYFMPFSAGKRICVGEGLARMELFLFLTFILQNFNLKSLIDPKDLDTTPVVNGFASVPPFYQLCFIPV
T2 sequence (P08684 whole entry): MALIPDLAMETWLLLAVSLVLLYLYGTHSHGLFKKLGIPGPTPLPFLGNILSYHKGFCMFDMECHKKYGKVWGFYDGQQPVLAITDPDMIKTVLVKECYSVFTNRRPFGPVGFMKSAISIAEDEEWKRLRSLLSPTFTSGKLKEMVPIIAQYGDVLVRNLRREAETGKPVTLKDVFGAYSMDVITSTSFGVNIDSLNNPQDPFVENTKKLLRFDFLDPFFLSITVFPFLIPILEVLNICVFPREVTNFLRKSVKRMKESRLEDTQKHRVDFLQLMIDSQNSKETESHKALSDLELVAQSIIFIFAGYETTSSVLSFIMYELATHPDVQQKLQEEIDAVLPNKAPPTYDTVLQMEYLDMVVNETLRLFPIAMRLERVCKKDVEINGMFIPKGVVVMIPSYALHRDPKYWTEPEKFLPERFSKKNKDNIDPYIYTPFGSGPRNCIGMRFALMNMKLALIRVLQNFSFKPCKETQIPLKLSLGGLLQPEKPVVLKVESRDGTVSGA
Sequence of CYP2C9 (P11712 whole entry): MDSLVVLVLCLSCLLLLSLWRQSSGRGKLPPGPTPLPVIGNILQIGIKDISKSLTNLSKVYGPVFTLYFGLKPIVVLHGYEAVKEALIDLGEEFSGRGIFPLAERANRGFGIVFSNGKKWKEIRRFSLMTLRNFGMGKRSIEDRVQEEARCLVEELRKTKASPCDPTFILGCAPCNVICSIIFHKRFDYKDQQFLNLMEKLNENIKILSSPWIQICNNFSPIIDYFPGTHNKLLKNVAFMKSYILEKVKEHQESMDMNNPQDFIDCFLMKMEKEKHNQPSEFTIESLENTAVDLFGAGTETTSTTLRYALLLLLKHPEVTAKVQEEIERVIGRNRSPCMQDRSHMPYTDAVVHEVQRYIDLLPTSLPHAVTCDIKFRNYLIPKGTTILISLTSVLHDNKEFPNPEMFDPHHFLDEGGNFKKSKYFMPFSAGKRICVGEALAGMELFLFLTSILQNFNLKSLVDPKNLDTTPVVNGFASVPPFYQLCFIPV
Sequence of CYP2D6 (P10635 whole entry): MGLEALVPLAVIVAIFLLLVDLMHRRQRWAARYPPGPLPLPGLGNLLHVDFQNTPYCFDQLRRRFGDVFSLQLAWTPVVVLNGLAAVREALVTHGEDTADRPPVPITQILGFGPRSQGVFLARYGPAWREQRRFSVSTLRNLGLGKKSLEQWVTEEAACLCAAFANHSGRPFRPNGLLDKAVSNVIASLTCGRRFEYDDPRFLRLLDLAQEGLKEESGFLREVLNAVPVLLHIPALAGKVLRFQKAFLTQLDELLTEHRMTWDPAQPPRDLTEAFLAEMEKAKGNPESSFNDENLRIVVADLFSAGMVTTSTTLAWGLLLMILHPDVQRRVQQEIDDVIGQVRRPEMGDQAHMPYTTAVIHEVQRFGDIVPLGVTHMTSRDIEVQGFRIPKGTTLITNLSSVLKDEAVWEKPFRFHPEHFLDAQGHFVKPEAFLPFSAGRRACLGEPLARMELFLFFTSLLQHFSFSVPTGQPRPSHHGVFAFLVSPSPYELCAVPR
Sequence of dopamine receptor 1 (P21728 whole entry): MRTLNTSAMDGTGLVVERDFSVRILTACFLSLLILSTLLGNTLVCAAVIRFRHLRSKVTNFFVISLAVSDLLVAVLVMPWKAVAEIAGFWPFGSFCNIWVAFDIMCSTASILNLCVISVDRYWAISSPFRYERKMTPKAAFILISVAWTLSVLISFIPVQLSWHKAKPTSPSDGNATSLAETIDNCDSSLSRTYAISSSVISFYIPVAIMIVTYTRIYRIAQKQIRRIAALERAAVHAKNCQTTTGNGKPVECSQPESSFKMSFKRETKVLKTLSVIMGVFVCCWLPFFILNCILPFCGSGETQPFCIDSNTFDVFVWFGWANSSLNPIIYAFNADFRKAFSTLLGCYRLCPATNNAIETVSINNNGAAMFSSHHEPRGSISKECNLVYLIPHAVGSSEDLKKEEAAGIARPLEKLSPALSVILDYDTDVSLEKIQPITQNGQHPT

For `CNc1nc(Nc2ccc(-n3cnc(C)n3)c(OC(F)F)c2)nc2c1C(C)(C)CC2c1ccc(F)cc1` (single isomer, unassigned) [Enantiomer 1, N2-(3-(difluoromethoxy)-4-(3-methyl-1H-1,2,4-triazol-1-yl)phenyl)-7-(4-fluorophenyl)-N4,5,5-trimethyl-6,7-dihydro-5H-cyclopenta[d]pyrimidine-2,4-diamine], the IC50 was 0.0012 µM in data set [1]; 0.96 µM in data set [2]; 12.7 µM in data set [3] (HLM, 0 min preincubation, read-out: IC50-0 min 2C9); 8.8 µM in data set [3] (IC50-30 min 2C9, HLM, 30 min preincubation with NADPH); 8 to 10 µM in data set [5]; 8 to 10 µM in data set [6]. The IC50 is greater than 10 µM in data set [7]; ~40 µM and 12 µM and 15.1 µM and 4.5 µM and ~12 µM in data set [8]; greater than 20 µM in data set [9]; greater than 40 µM in data set [10]; greater than 40 µM in data set [10] (read-out: IC50-30 min 1A2, HLM, 30 min preincubation with NADPH); 22.6 µM in data set [12] (IC50-0 min 2C19, HLM, 0 min preincubation). In data set [12] (IC50-30 min 2C19, HLM, 30 min preincubation with NADPH), this compound showed an IC50 of 12.2 µM. Moreover, the “IC50 Ratio 2C9” value in data set [3] (setting [14]) is listed as 1.4. In addition, in [4] (HLM CYP3A4 inactivation), the “KI; Kinact” value is listed as “Inactivation rates below the limit of reliable”. The apparent rates of inactivation (kobs) with midazolam in data set [4] (setting [15]) is less than 0.003 min⁻¹. For the same compound, the apparent rates of inactivation (kobs) with testosterone in data set [4] (setting [15]) was less than 0.006 min⁻¹. Moreover, in data set [4] (HLM, midazolam and testosterone probes), the “mechanism-based inhibition of CYP3A4” value is “not a mechanism-based inhibitor of CYP3A4”. The “IC50 Ratio 1A2” value in data set [10] (setting [14]) is on record as 1.0. The “IC50 Ratio 2D6” value in [11] worked out at 2.2. Also, in [12] (setting [14]), the “IC50 Ratio 2C19” value is 1.9. For the same compound, the “IC50 Ratio 3A4-(MDZ)” value in [13] (midazolam probe) came out at 2.6. In addition, in data set [13] (testosterone probe), the “IC50 Ratio 3A4-(TST)” value is given as 2.7.
